Key:
guinea pigs [1] = experiment: Eosinophil count in cartilaginous airways (histology); type: in vivo, guinea pig; settings: challengeddex vs challenged
Protocol: (§1) Animals were sacrificed with an overdose of urethane (3 gm/kg i.v.). Cytosmear for total and differential cell counts (Diff-Quik®, Baxter Healthcare Corp) were performed on lung lavage ^17. The lungs were removed, inflated and fixed in 3.7% formaldehyde for 24 hours. Airway sections were stained with 2% chromotrope 2R to determine the average number of eosinophils per 10 high power field (#/hpf) as previously described^20.
(§2) A P-value of 0.05 was considered significant.

guinea pigs [2] = experiment: Lung lavage total and differential cell counts; type: in vivo, guinea pig
Protocol: as §1, §2

[3] = Urine metabolite concentrations by 1H-NMR (Chenomx, PLS-DA); type: in vivo, guinea pig; settings: for urine Fumarate concentration / urine Glycolate concentration / urine Trimethylamine concentration: mean (STD) per title
Protocol: Regarding animal urine data: under anaesthesia, but before performing airway inflammatory measurements, urine samples (1.0-2.0 cc) were collected by trans-abdominal cystocentesis. Regarding human urine data: midstream urine samples were collected in standard 50 ml specimen containers and promptly placed in a freezer at the outpatient clinic (−20° C.).
Within 3 hours each the urine sample was moved to the −80° C. freezer at NANUC (National High Field NMR Centre), University of Alberta. To determine the NMR spectra, the samples were thawed in a biosafety fume hood and a […] aliquot was removed and placed in a 1.5 ml Eppendorff tube followed by the addition of […] of a reference buffer solution (4.9 mM DSS (disodium-2, 2-dimethyl 2-silapentane-5-sulphonate) and 100 mM imidazole in D2O, Sigma-Aldrich). Each sample was brought to a pH of 7.0 +/-0.1 using HCl and NaOH. An uncentrifuged aliquot of 600 μl was taken and transferred to a standard 5 mm glass NMR tube (Wilmad, N.J.). ^1H-NMR spectra were acquired on a 600 MHz Inova spectrometer (Varian Inc, Palo Alto, Calif.) equipped with a 5 mm triple-resonance (HCN) probe with z-axis gradient coil. One-dimensional ^1H-NMR spectra were collected at 25° C. with a tnnoesy pulse sequence (one-dimensional, three pulse NOESY, with a transmitter pre-saturation delay of 900 ms for water suppression during the pre-acquisition delay and 100 ms mixing time) and a spectral width of 7200 Hz. The time-domain data points were 64k complex points, acquisition time was 4s, 90° pulse was 6.8 μs, repetition time was 5 s, with four steady state scans, and 32 acquired scans per FID (Free Induction Decay). The data were apodized with an exponential window function corresponding to a line broadening of 0.5 Hz, zero-filled to 128 k complex points, and Fourier transformed^22.
Quantification of 50-70 easily identifiable metabolites involved in various relevant metabolic pathways was performed using Chenomx NMR Suite Professional software package Version 3.1 (Chenomx Inc., Edmonton, AB)^23. The software contains a database of known metabolites with their referenced spectral resonant frequencies or signatures. The software allows matching of these known resonant frequencies with the observed resonant frequencies of the collected spectra, enabling the qualitative and quantitative analysis of metabolites in urine NMR spectra (FIG. 1A). The methyl groups from DSS produce a resonant singlet, which served as internal standard for spectral chemical shifts (set to 0 ppm) and for quantification. The internal DSS signal was also utilized as the concentration reference (0.49 mM). To correct for dilution, metabolite concentrations were referenced against urinary creatinine^24. This method is capable of providing metabolite concentration accuracies in excess of 90%^23, 25.
To separate groups of animals or patients based on urine metabolite concentrations, the values of the 50-70 metabolite concentrations for each animal/child were log transformed and imported to SIMCA software (SIMCA-P 11, Umetrics, USA). […] To appreciate the impact of a lower concentration metabolite in the model, equal to the change in an abundant metabolite, the methods must detect the relative change in concentration. Thus, metabolite concentrations were mean-centered followed by unit variance scaling (or z-scoring). Thereafter, partial least squares discriminant analysis (PLS-DA) was performed (SIMCA-P 11). PLS-DA determines the relationship between the response vector Y (i.e. subject group) and the matrix X (concentration of each metabolite) by simultaneous projections of both Y and X spaces to a plane. Then seven fold internal crossvalidation was performed by dividing the data into seven parts (by default) and each 1/7th in turn was removed.

guinea pigs [4] = system: guinea pigs
Protocol: Female Dunkin-Hartley guinea pigs (GP) were used (specific pathogen-free, 180-450 g, Charles River Laboratories, Saint-Constant, Canada) in accordance with standards established by the University of Alberta Health Sciences Animal Policy and Welfare Committee and Guidelines of the Canadian Council on Animal Care. All guinea pigs were allowed to adapt to the new environment for at least one week before physiologic studies. […] Airway function and inflammation were assessed four days after OVA challenge or 21 days after sensitization alone.
Guinea Pigs were anesthetized with urethane (1.5 g/kg i.p.), tracheostomized, and ventilated after paralysis with succinylcholine chloride (Sigma-Aldrich) (10 μg/kg/min, i.v.). Pulmonary inflation pressure (Ppi) was measured using (Powerlab, Adlnstruments, Colorado Springs, USA) as previously described^17. […] The resulting bronchoconstriction was recorded as increases in Ppi.
The results are expressed as mean and standard error of the mean (SEM) and standard deviation (SD) respectively. A P-value of 0.05 was considered significant.

C[C@@H]1C[C@H]2[C@@H]3CCC4=CC(=O)C=C[C@]4(C)[C@@]3(F)[C@@H](O)C[C@]2(C)[C@@]1(O)C(=O)CO [Dex, dexamethasone]
eosinophils in cartilaginous airways (guinea pigs [1]): remained similar to challenged
total cells in lung lavage (guinea pigs [2]; challengeddex vs challenged): remained higher similar to challenge
lymphocytes in lung lavage (guinea pigs [2]; challengeddex vs challenged, p<0.05): significantly lower
total cell counts in lung lavage (guinea pigs [2]; controldex vs control and sensitized, dexamethasone 6.5 μg/kg i.p. daily for three days): no significant difference
macrophage values in lung lavage (guinea pigs [2]; controldex vs control, p=0.03): higher compared with control
urine 1-Methyl-Histamine concentration ([3]; Challenged/Dex group (n = 12)): 0.044(0.002-0.055) mmol/mmol creatinine
urine 2-OH-Isobutyrate concentration ([3]; Challenged/Dex group (n = 12)): 0.043(0.031-0.061) mmol/mmol creatinine
urine 2-Oxoglutarate concentration ([3]; Challenged/Dex group (n = 12)): 0.006(0.005-0.012) mmol/mmol creatinine
urine 3-Methyl-Adipate concentration ([3]; Challenged/Dex group (n = 12)): 0.011(0.009-0.017) mmol/mmol creatinine
urine 3-OH-3-Methyl-Glutarate concentration ([3]; Challenged/Dex group (n = 12)): 0.010(0.006-0.014) mmol/mmol creatinine
urine 3-OH-Butyrate concentration ([3]; Challenged/Dex group (n = 12)): 0.018(0.013-0.029) mmol/mmol creatinine
urine 4-Aminohippurate concentration ([3]; Challenged/Dex group (n = 12)): 0.010(0.005-0.010) mmol/mmol creatinine
urine 4-OH-Phenylacetate concentration ([3]; Challenged/Dex group (n = 12)): 0.122(0.068-0.196) mmol/mmol creatinine
urine 4-Pyridoxate concentration ([3]; Challenged/Dex group (n = 12)): 0.009(0.005-0.010) mmol/mmol creatinine
urine Acetate concentration ([3]; Challenged/Dex group (n = 12)): 0.118(0.081-0.203) mmol/mmol creatinine
urine Acetoacetate concentration ([3]; Challenged/Dex group (n = 12)): 0.007(0.005-0.010) mmol/mmol creatinine
urine Acetone concentration ([3]; Challenged/Dex group (n = 12)): 0.005(0.003-0.009) mmol/mmol creatinine
urine Adenosine concentration ([3]; Challenged/Dex group (n = 12)): 0(0-0.001) mmol/mmol creatinine
urine Carnitine concentration ([3]; Challenged/Dex group (n = 12)): 0.010(0.010-0.015) mmol/mmol creatinine
urine Creatine concentration ([3]; Challenged/Dex group (n = 12)): 0.026(0.016-0.033) mmol/mmol creatinine
urine Dimethylamine concentration ([3]; Challenged/Dex group (n = 12)): 0.122(0.103-0.146) mmol/mmol creatinine
urine Glucose concentration ([3]; Challenged/Dex group (n = 12)): 0.155(0.100-0.334) mmol/mmol creatinine
urine Isobutyrate concentration ([3]; Challenged/Dex group (n = 12)): 0(0-0) mmol/mmol creatinine
urine Kynurenate concentration ([3]; Challenged/Dex group (n = 12)): 0.006(0.004-0.008) mmol/mmol creatinine
urine Malonate concentration ([3]; Challenged/Dex group (n = 12)): 0.014(0.010-0.018) mmol/mmol creatinine
urine Methylamine concentration ([3]; Challenged/Dex group (n = 12)): 0.033(0.026-0.069) mmol/mmol creatinine
urine Myolnositol concentration ([3]; Challenged/Dex group (n = 12)): 0.035(0.020-0.080) mmol/mmol creatinine
urine Oxalacetate concentration ([3]; Challenged/Dex group (n = 12)): 0.249(0.197-0.323) mmol/mmol creatinine
urine Phenylacetylglycine concentration ([3]; Challenged/Dex group (n = 12)): 0.140(0.095-0.213) mmol/mmol creatinine
urine Phenylalanine concentration ([3]; Challenged/Dex group (n = 12)): 0.022(0.016-0.042) mmol/mmol creatinine
urine Sarcosine concentration ([3]; Challenged/Dex group (n = 12)): 0.010(0.007-0.016) mmol/mmol creatinine
urine Succinate concentration ([3]; Challenged/Dex group (n = 12)): 0.006(0.005-0.008) mmol/mmol creatinine
urine Trigonelline concentration ([3]; Challenged/Dex group (n = 12)): 0.069(0.063-0.091) mmol/mmol creatinine
urine Trimethyl-N-Oxide concentration ([3]; Challenged/Dex group (n = 12)): 0.045(0.027-0.062) mmol/mmol creatinine
urine Tyrosine concentration ([3]; Challenged/Dex group (n = 12)): 0.024(0.016-0.032) mmol/mmol creatinine
urine Fumarate concentration ([3]; Challenged/Dex group (n = 12)): 0(0-0) mmol/mmol creatinine
urine Glycolate concentration ([3]; Challenged/Dex group (n = 12)): 0(0-0) mmol/mmol creatinine
urine Trimethylamine concentration ([3]; Challenged/Dex group (n = 12)): 0(0-0) mmol/mmol creatinine
urine 1-Methyl-Histamine concentration ([3]; Control/Dex group (n = 4)): 0.015(0.008-0.023) mmol/mmol creatinine
urine 2-OH-Isobutyrate concentration ([3]; Control/Dex group (n = 4)): 0.043(0.038-0.045) mmol/mmol creatinine
urine 2-Oxoglutarate concentration ([3]; Control/Dex group (n = 4)): 0.004(0.003-0.005) mmol/mmol creatinine
urine 3-Methyl-Adipate concentration ([3]; Control/Dex group (n = 4)): 0.015(0.008-0.018) mmol/mmol creatinine
urine 3-OH-3-Methyl-Glutarate concentration ([3]; Control/Dex group (n = 4)): 0.004(0.003-0.005) mmol/mmol creatinine
urine 3-OH-Butyrate concentration ([3]; Control/Dex group (n = 4)): 0.041(0.029-0.048) mmol/mmol creatinine
urine 4-Aminohippurate concentration ([3]; Control/Dex group (n = 4)): 0.090(0.040-0.115) mmol/mmol creatinine
urine 4-OH-Phenylacetate concentration ([3]; Control/Dex group (n = 4)): 0.101(0.095-0.130) mmol/mmol creatinine
urine 4-Pyridoxate concentration ([3]; Control/Dex group (n = 4)): 0.004(0.003-0.005) mmol/mmol creatinine
urine Acetate concentration ([3]; Control/Dex group (n = 4)): 0.137(0.098-0.180) mmol/mmol creatinine
urine Acetoacetate concentration ([3]; Control/Dex group (n = 4)): 0.011(0.009-0.012) mmol/mmol creatinine
urine Acetone concentration ([3]; Control/Dex group (n = 4)): 0.004(0.003-0.005) mmol/mmol creatinine
urine Adenosine concentration ([3]; Control/Dex group (n = 4)): 0.002(0-0.003) mmol/mmol creatinine
urine Carnitine concentration ([3]; Control/Dex group (n = 4)): 0.140(0.120-0.175) mmol/mmol creatinine
urine Creatine concentration ([3]; Control/Dex group (n = 4)): 0.039(0.035-0.045) mmol/mmol creatinine
urine Dimethylamine concentration ([3]; Control/Dex group (n = 4)): 0.096(0.087-0.110) mmol/mmol creatinine
urine Isobutyrate concentration ([3]; Control/Dex group (n = 4)): 0(0-0.50) mmol/mmol creatinine
urine Kynurenate concentration ([3]; Control/Dex group (n = 4)): 0.005(0.004-0.010) mmol/mmol creatinine
urine Malonate concentration ([3]; Control/Dex group (n = 4)): 0.016(0.011-0.020) mmol/mmol creatinine
urine Methylamine concentration ([3]; Control/Dex group (n = 4)): 0.009(0.009-0.014) mmol/mmol creatinine
urine Myolnositol concentration ([3]; Control/Dex group (n = 4)): 0.410(0.380-0.570) mmol/mmol creatinine
urine Oxalacetate concentration ([3]; Control/Dex group (n = 4)): 0.237(0.228-0.247) mmol/mmol creatinine
urine Phenylacetylglycine concentration ([3]; Control/Dex group (n = 4)): 0.024(0.022-0.026) mmol/mmol creatinine
urine Phenylalanine concentration ([3]; Control/Dex group (n = 4)): 0.011(0.009-0.013) mmol/mmol creatinine
urine Sarcosine concentration ([3]; Control/Dex group (n = 4)): 0.004(0.003-0.005) mmol/mmol creatinine
urine Succinate concentration ([3]; Control/Dex group (n = 4)): 0.013(0.011-0.014) mmol/mmol creatinine
urine Succinylacetone concentration ([3]; Control/Dex group (n = 4)): 0.004(0.003-0.005) mmol/mmol creatinine
urine Trigonelline concentration ([3]; Control/Dex group (n = 4)): 0.053(0.044-0.059) mmol/mmol creatinine
urine Trimethyl-N-Oxide concentration ([3]; Control/Dex group (n = 4)): 0.089(0.076-0.107) mmol/mmol creatinine
urine Tyrosine concentration ([3]; Control/Dex group (n = 4)): 0.027(0.016-0.042) mmol/mmol creatinine
urine Fumarate concentration ([3]; Control/Dex group (n = 4)): 0(0-0) mmol/mmol creatinine
urine Glycolate concentration ([3]; Control/Dex group (n = 4)): 0(0-0) mmol/mmol creatinine
urine Trimethylamine concentration ([3]; Control/Dex group (n = 4)): 0(0-0) mmol/mmol creatinine
urine phenylacetylglycine level ([3]; challenged animals after dexamethasone treatment): returned to control levels
urine sarcosine level ([3]; challenged guinea pig after steroid treatment): decreased
urine metabolite profile by PLS-DA ([3]; challenged vs challengeddex, control vs controldex): altered urine metabolite profile
urine myo-inositol level ([3]; challengeddex among guinea pig groups): highest
urinary excretion of 2-hydroxyisobutyrate ([3]; challengeddex vs challenged): levels rose
urinary excretion of glucose ([3]; challengeddex vs challenged): levels rose
urine phenylacetylglycine level ([3]; dexamethasone-treated controls vs control): significantly lower levels
bronchoconstriction response to histamine (Ppi) (guinea pigs [4]; challengeddex compared to challenged alone, dexamethasone 6.5 μg/kg i.p. 1 hour after challenge then daily for two days, p<0.05): diminished response

NCCc1c[nH]cn1 [histamine]
bronchoconstriction measured by increasing Ppi (guinea pigs [4]; histamine 1-20 μg/kg i.v.): dose-dependent bronchoconstriction

Reference: patent US20110238319A1, “METHOD OF DIAGNOSING A RESPIRATORY DISEASE” (priority 2008, published 2011)
